The values below come from ChEMBL document CHEMBL3758090, “Investigation of α-conotoxin unbinding using umbrella sampling” (Bioorg Med Chem Lett, 2016).

The assay deals with T1, Soluble acetylcholine receptor (Aplysia californica, UniProt Q8WSF8).
T1 sequence (Q8WSF8 whole entry): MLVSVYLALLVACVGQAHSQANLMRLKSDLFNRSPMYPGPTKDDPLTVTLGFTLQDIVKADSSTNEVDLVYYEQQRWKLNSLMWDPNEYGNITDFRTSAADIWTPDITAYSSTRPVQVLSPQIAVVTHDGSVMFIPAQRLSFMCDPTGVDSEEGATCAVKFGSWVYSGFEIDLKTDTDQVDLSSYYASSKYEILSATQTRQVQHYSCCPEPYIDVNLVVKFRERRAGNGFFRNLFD
In words: Displacement [125I]alpha-bungarotoxin from untagged Aplysia californica AChBP expressed in Sf9 cells by competitive binding assay.

`C[C@@H]1NC(=O)[C@@H]2CSSC[C@H](NC(=O)CN)C(=O)N[C@@H](CSSC[C@@H](C(=O)O)NC(=O)[C@H](CCCNC(=N)N)NC(=O)[C@H](Cc3c[nH]c4ccccc34)NC1=O)C(=O)N[C@@H](CO)C(=O)N[C@@H](CC(=O)O)C(=O)N1CCC[C@H]1C(=O)N[C@@H](CCCNC(=N)N)C(=O)N2`: the IC50 (commonly the concentration that inhibits the measured activity by half) amounted to 33 nM. In other words, the double-digit nanomolar range.
